Results taken from ChEMBL document CHEMBL1909294, “Translating clinical findings into knowledge in drug safety evaluation--drug induced liver injury prediction system (DILIps)” (PLoS Comput Biol, 2011).

Experiments:
[1] = test system: Hepatotoxicity;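 on HepSE bilirubinemia: bilirubinemia hepatic side effect score drawn from the DILIps training data, a prediction system for drug-induced liver injury; call rule not given here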;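 on HepSE cholecystitis: Cholecystitis-related hepatic side effect score drawn from the DILIps (drug-induced liver injury prediction) training data set; call rule not given here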;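 on HepSE cholelithiasis: hepatic side effect score for cholelithiasis, drawn from the DILIps training data for predicting drug-induced liver injury; call rule not given here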;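 on HepSE cirrhosis: cirrhosis hepatic side effect score taken from the DILIps (drug-induced liver injury prediction) training set; call rule not given here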;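 on HepSE elevated liver function tests: hepatic side effect score for raised liver function tests, as recorded in the DILIps training set used for predicting drug-induced liver injury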; on HepSE hepatic failure: call rule not given here;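 on HepSE hepatomegaly: hepatic side effect score for hepatomegaly, taken from the training set of the DILIps drug-induced liver injury prediction system; call rule not given here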
[2] = test system: Hepatotoxicity; remark: listed apart in the source;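 on HepSE bilirubinemia: bilirubinemia hepatic side effect score drawn from the DILIps training data, a prediction system for drug-induced liver injury; call rule not given here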;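 on HepSE cholecystitis: Cholecystitis-related hepatic side effect score drawn from the DILIps (drug-induced liver injury prediction) training data set; call rule not given here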;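 on HepSE cholelithiasis: hepatic side effect score for cholelithiasis, drawn from the DILIps training data for predicting drug-induced liver injury; call rule not given here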;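 on HepSE cirrhosis: cirrhosis hepatic side effect score taken from the DILIps (drug-induced liver injury prediction) training set; call rule not given here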;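 on HepSE elevated liver function tests: hepatic side effect score for raised liver function tests, as recorded in the DILIps training set used for predicting drug-induced liver injury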; on HepSE hepatic failure: call rule not given here;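 on HepSE hepatomegaly: hepatic side effect score for hepatomegaly, taken from the training set of the DILIps drug-induced liver injury prediction system; call rule not given here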
[3] = test system: Hepatotoxicity; remark: listed apart in the source;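 on HepSE bilirubinemia: bilirubinemia hepatic side effect score drawn from the DILIps training data, a prediction system for drug-induced liver injury; call rule not given here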;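 on HepSE cholecystitis: Cholecystitis-related hepatic side effect score drawn from the DILIps (drug-induced liver injury prediction) training data set; call rule not given here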;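 on HepSE cholelithiasis: hepatic side effect score for cholelithiasis, drawn from the DILIps training data for predicting drug-induced liver injury; call rule not given here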;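 on HepSE cirrhosis: cirrhosis hepatic side effect score taken from the DILIps (drug-induced liver injury prediction) training set; call rule not given here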;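 on HepSE elevated liver function tests: hepatic side effect score for raised liver function tests, as recorded in the DILIps training set used for predicting drug-induced liver injury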; on HepSE hepatic failure: call rule not given here
[4] = test system: Hepatotoxicity; remark: listed apart in the source;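 on HepSE bilirubinemia: bilirubinemia hepatic side effect score drawn from the DILIps training data, a prediction system for drug-induced liver injury; call rule not given here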;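 on HepSE cholecystitis: Cholecystitis-related hepatic side effect score drawn from the DILIps (drug-induced liver injury prediction) training data set; call rule not given here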;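 on HepSE cholelithiasis: hepatic side effect score for cholelithiasis, drawn from the DILIps training data for predicting drug-induced liver injury; call rule not given here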;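 on HepSE cirrhosis: cirrhosis hepatic side effect score taken from the DILIps (drug-induced liver injury prediction) training set; call rule not given here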;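 on HepSE elevated liver function tests: hepatic side effect score for raised liver function tests, as recorded in the DILIps training set used for predicting drug-induced liver injury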; on HepSE hepatic failure: call rule not given here
[5] = test system: Hepatotoxicity; remark: listed apart in the source; on HepSE hepatic failure: call rule not given here
[6] = test system: Hepatotoxicity; remark: listed apart in the source; on HepSE hepatic failure: call rule not given here
[7] = test system: Hepatotoxicity; remark: listed apart in the source
[8] = test system: Hepatotoxicity; remark: listed apart in the source
[9] = test system: Hepatotoxicity; remark: listed apart in the source
[10] = test system: Hepatotoxicity; remark: listed apart in the source
[11] = test system: Hepatotoxicity; remark: listed apart in the source
[12] = test system: Hepatotoxicity; remark: listed apart in the source
[13] = test system: Hepatotoxicity; remark: listed apart in the source
[14] = test system: Hepatotoxicity; remark: listed apart in the source

SMILES	HepSE_bilirubinemia [1]	HepSE_cholecystitis [2]	HepSE_cholelithiasis [3]	HepSE_cirrhosis [4]	HepSE_elevated liver function tests [5]	HepSE_hepatic failure [6]	HepSE_hepatic necrosis [7]	HepSE_hepatitis [8]	HepSE_hepatomegaly [9]	HepSE_jaundice [10]	HepSE_liver disease [11]	HepSE_liver fatty [12]	HepSE_liver function tests abnormal [13]	HepSE_Combined Scores [14]	also measured
O=C(NCC(O)CO)c1c(I)c(C(=O)NCC(O)CO)c(I)c(N(CCO)C(=O)CO)c1I (configuration not stated) [IOVERSOL]	0	0	0	0	0	0	0	0	0	0	0	0	0	0	
Cc1ccc(S(=O)(=O)NC(=O)NN2CC3CCCC3C2)cc1 (configuration not stated) [GLICLAZIDE]	0	0	0	0	0	1	0	1	1	1	0	0	0	4	
Cc1ncc([N+](=O)[O-])n1CCO [METRONIDAZOLE]	0	0	0	0	0	0	0	1	0	0	0	0	0	1	
Cc1onc(-c2ccccc2)c1C(=O)N[C@@H]1C(=O)N2[C@@H]1SC(C)(C)[C@@H]2C(=O)O [OXACILLIN]	0	0	0	0	0	0	0	0	0	0	0	0	1	1	
CN(C)CCc1c[nH]c2ccc(Cn3cncn3)cc12 [RIZATRIPTAN]	0	0	0	0	0	0	0	0	0	0	0	0	0	0	
CC(=O)O[C@H]1C(=O)[C@@]2(C)[C@H]([C@H](OC(=O)c3ccccc3)[C@]3(O)C[C@H](OC(=O)[C@H](O)[C@@H](NC(=O)c4ccccc4)c4ccccc4)C(C)=C1C3(C)C)[C@]1(OC(C)=O)CO[C@@H]1C[C@@H]2O [PACLITAXEL]															HepSE_bilirubinemia ([1]; Liver): 0; HepSE_cholecystitis ([2]; Liver): 0; HepSE_cholelithiasis ([3]; Liver): 0; HepSE_cirrhosis ([4]; Liver): 0; HepSE_elevated liver function tests ([5]; Liver): 1; HepSE_hepatic failure ([6]; Liver): 0; HepSE_hepatic necrosis ([7]; Liver): 1; HepSE_hepatitis ([8]; Liver): 0; HepSE_hepatomegaly ([9]; Liver): 0; HepSE_jaundice ([10]; Liver): 0; HepSE_liver disease ([11]; Liver): 0; HepSE_liver fatty ([12]; Liver): 0; HepSE_liver function tests abnormal ([13]; Liver): 0; HepSE_Combined Scores ([14]; Liver): 2
O.O=P(O)(O)C(O)(Cn1ccnc1)P(=O)(O)O [ZOLEDRONIC ACID]	0	0	0	0	0	0	0	0	0	0	0	0	1	1	
CCn1cc(C(=O)O)c(=O)c2cc(F)c(N3CCNCC3)cc21 [NORFLOXACIN]															HepSE_bilirubinemia ([1]; Liver): 0; HepSE_cholecystitis ([2]; Liver): 0; HepSE_cholelithiasis ([3]; Liver): 0; HepSE_cirrhosis ([4]; Liver): 0; HepSE_elevated liver function tests ([5]; Liver): 1; HepSE_hepatic failure ([6]; Liver): 1; HepSE_hepatic necrosis ([7]; Liver): 1; HepSE_hepatitis ([8]; Liver): 1; HepSE_hepatomegaly ([9]; Liver): 0; HepSE_jaundice ([10]; Liver): 1; HepSE_liver disease ([11]; Liver): 0; HepSE_liver fatty ([12]; Liver): 0; HepSE_liver function tests abnormal ([13]; Liver): 0; HepSE_Combined Scores ([14]; Liver): 5
Oc1c(Cl)cc(Cl)c(Cl)c1Cc1c(O)c(Cl)cc(Cl)c1Cl [HEXACHLOROPHENE]	0	0	0	0	0	0	0	0	0	0	0	0	0	0	
CCN1C(=O)NC(c2ccccc2)C1=O (configuration not stated) [ETHOTOIN]	0	0	0	0	0	0	0	0	0	0	0	0	0	0	
COCC1=C(C(=O)O)N2C(=O)[C@@H](NC(=O)/C(=N\OC)c3csc(N)n3)[C@H]2SC1 [CEFPODOXIME]	0	0	0	0	0	0	0	0	0	0	0	0	0	0	
O=C([O-])O.[Na+] [SODIUM BICARBONATE]															HepSE_bilirubinemia ([1]; Liver): 0; HepSE_cholecystitis ([2]; Liver): 0; HepSE_cholelithiasis ([3]; Liver): 0; HepSE_cirrhosis ([4]; Liver): 0; HepSE_elevated liver function tests ([5]; Liver): 0; HepSE_hepatic failure ([6]; Liver): 0; HepSE_hepatic necrosis ([7]; Liver): 0; HepSE_hepatitis ([8]; Liver): 0; HepSE_hepatomegaly ([9]; Liver): 0; HepSE_jaundice ([10]; Liver): 0; HepSE_liver disease ([11]; Liver): 0; HepSE_liver fatty ([12]; Liver): 0; HepSE_liver function tests abnormal ([13]; Liver): 0; HepSE_Combined Scores ([14]; Liver): 0
Cc1oncc1C(=O)Nc1ccc(C(F)(F)F)cc1 [LEFLUNOMIDE]	0	0	1	0	0	1	1	1	0	1	1	0	1	7	
